# Source: ChEMBL document CHEMBL3397035, “Spectral and biological evaluation of a synthetic antimicrobial peptide derived from 1-aminocyclohexane carboxylic acid” (2015)
# Calls of active or inactive are those of the source. The rule behind the calls is not given here. Square brackets hold non-standard residues; d marks the D form. Peptide text beside a SMILES is read from it. Ac6c = NC1(C(=O)O)CCCCC1
# Assays:
# [1] = system: Staphylococcus aureus; test: Antibacterial activity against methicillin-sensitive Staphylococcus aureus UAMS-1 after 24 hrs by standard broth microdilution method; type: functional; conditions: UAMS-1, 24 h
# [2] = system: Acinetobacter baumannii; test: Antibacterial activity against ampicillin, gentamicin, kanamycin, streptomycin, and tetracycline-resistant Acinetobacter baumannii WRAIR clinical isolate 13 after 24 hrs by standard broth microdilution method; type: functional; conditions: WRAIR clinical isolate 13, 24 h
# [3] = system: Klebsiella pneumoniae; test: Antibacterial activity against ampicillin, azithromycin, chloramphenicol, gentamicin, and tetracycline-resistant Klebsiella pneumoniae BAMS clinical isolate 07-18 after 24 hrs by standard broth microdilution method; type: functional; conditions: BAMS clinical isolate 07-18, 24 h
# [4] = system: Pseudomonas aeruginosa; test: Antibacterial activity against Pseudomonas aeruginosa PAO1 after 24 hrs by standard broth microdilution method; type: functional; conditions: PAO1, 24 h
# [5] = system: Klebsiella aerogenes; test: Antibacterial activity against Enterobacter aerogenes after 24 hrs by standard broth microdilution method; type: functional
# [6] = system: Enterococcus faecium; test: Antibacterial activity against Enterococcus faecium MMC4 after 24 hrs by standard broth microdilution method; type: functional; conditions: MMC4, 24 h
# [7] = Binding affinity to 80 mM Dodecylphosphocholine micelles assessed as Lys connectivities with pH 4.4 sodium acetate buffer by TOCSY spectra
# [8] = Binding affinity to sodium dodecyl sulfate micelles assessed as Lys connectivities with pH 4.4 sodium acetate buffer by TOCSY spectra
# [9] = system: Lipid bilayer; test: Binding affinity to 3.5 mM small unilamellar vesicles containing POPC with pH 6.8 sodium phosphate buffer by Far-UV-CD spectra
# [10] = system: Lipid bilayer; test: Binding affinity to 3.5 mM small unilamellar vesicles containing 4:1 POPC/POPG with pH 6.8 sodium phosphate buffer by Far-UV-CD spectra
# [11] = system: Lipid bilayer; test: Binding affinity to 3.5 mM small unilamellar vesicles containing 60% POPE/21%POPG/19%POPC with pH 6.8 sodium phosphate buffer by Far-UV-CD spectra
# [12] = system: Lipopolysaccharide (LPS); test: Binding affinity to lipopolysaccharides collected from Escherichia coli assessed as helical conformation with 40 mM sodium phosphate buffer at pH 6.8
# [13] = system: Lipopolysaccharide (LPS); test: Binding affinity to lipopolysaccharides collected from Pseudomonas aeruginosa assessed as helical conformation with 40 mM sodium phosphate buffer at pH 6.8
# [14] = system: Lipopolysaccharide (LPS); test: Binding affinity to lipopolysaccharides collected from Klebsiella pneumoniae assessed as helical conformation with 40 mM sodium phosphate buffer at pH 6.8
smiles,measurement,setting,value
CC(=O)NCC(=O)N[C@@H](Cc1ccccc1)C(=O)NC1(C(=O)NCC(=O)NC2(C(=O)N[C@@H](CCCCN)C(=O)NC3(C(=O)NCC(=O)NC4(C(=O)N[C@@H](Cc5ccccc5)C(=O)NC5(C(=O)NCC(=O)NC6(C(=O)NCC(=O)N[C@@H](CCCCN)C(=O)NC7(C(=O)N[C@@H](CCCCN)C(=O)N[C@@H](CCCCN)C(=O)N[C@@H](CCCCN)C(=O)N[C@@H](CCCCN)C(N)=O)CCCCC7)CCCCC6)CCCCC5)CCCCC4)CCCCC3)CCCCC2)CCCCC1 (Ac-GF[Ac6c]G[Ac6c]K[Ac6c]G[Ac6c]F[Ac6c]G[Ac6c]GK[Ac6c]KKKK-NH2),MIC,[1],10.9 µM
same,MIC,[2],10.9 µM
same,MIC,[3],43 µM
same,MIC,[4],21.9 µM
same,MIC,[5],21.9 µM
same,MIC,[6],10.9 µM
same,Activity,[7],Active
same,Activity,[8],Active
same,Activity,[9],inactive
same,Activity,[10],Active
same,Activity,[11],Active
same,Activity,[12],Active
same,Activity,[13],Active
same,Activity,[14],Active
